Data from patent US5877185A, “Synergistic compositions useful as anti-tumor agents” (priority 1995, dated 1999).

What was measured:
MT-2 cells = assay: effectiveness on human T-lymphoblastoid leukemia cells, MT-2; format: cell-based
Description: IV. Effectiveness of 4-(halogen)-3-nitro-benzamide compounds as tested with human T-lymphoblastoid leukemia cell lines in culture.
Cells (MT-2 cells, or, in case of 3-fluoro-4-nitro-benzamide, CEM-4 cells) were seeded at a density of 0.1×10^5 /ml; the drugs were added at the time of seeding. The cultures were incubated at 37° C. in a 5% CO2 atmosphere and the cells numbers were monitored by hemacytometer counting in 24 hr intervals.

AA-2 leukemia cells = assay: cytocidal effect in combination with ascorbate; conditions: for protection against apoptosis-inducing action: 160 μM ascorbate, 18 hr of drug exposure; for cell number Day 1 / cell number Day 2: alone or with ascorbate 160 μM; for cell number Day 1: 18 hr; for cell number Day 2: 42 hr
Description: Because of the in vitro reactivity of the nitroso group of INOBA with both ascorbate and GSH, the apoptosis-inducing effect of NOBA with the action of the prodrug INO2 BA in the presence of ascorbate, added simultaneously with both drugs was compared.
AA-2 cells were seeded at a density of 0.2×10^6 cells/ml. Drugs and/or sodium ascorbate were added at the time of seeding, and cells were counted by hemacytometer after incubation (37° C., 5% CO^2) for 18 hr (Day 1) and for 42 hr (Day 2). Viability was evaluated by Trypan Blue exclusion.

Molt-4 cells = assay: time course of cell killing alone and with BSO, Molt-4; format: cell-based; conditions: Molt-4, 2-3 day period; 4 μM drug, 1 mM BSO
Description: (§1) Molt 4-cells were seeded at a density of 0.05×10^6 cell/ml in the recommended growth medium in the absence or the presence of drugs as indicated. Cells were incubated at 37° C. in a 5% CO2 atmosphere and proliferation was monitored in 14 hr. by cell counting in a hemacytometer. .smallcircle., untreated control; .circle-solid., treated with 4 μM 4-iodo-3-nitrobenzoic acid; .gradient., treated with 1 mM BSO; .tangle-soliddn., treated with 4 μM-iodo-3-nitrobenzoic acid and 1 mM BSO; .quadrature., treated with 4 μM 4-INO2 BA; .box-solid., treated with 1 mM BSO; .gradient., treated with 4 μM INO2 BA and 1 mM BSO. L-1210 cells were seeded at a density of 0.05×10^6 cells/ml either from untreated stock suspensions or from 24-hr. pretreated (0.2×10^6 cells/ml) suspensions. .smallcircle., untreated control; .circle-solid., treated with […] NOBA; .gradient., treated with 1 mM BSO; .tangle-soliddn., 24-hr pretreatment with 1 mM BSO then treated with 4 μM NOBA.
(§2) A time course of the cell killings by 4-iodo-3-nitrobenzoic acid, INO2 BA and NOBA, each alone and in combination with BSO was obtained. Molt-4 cells were seeded at a density of 0.05×10^6 cells/ml in the recommended growth medium in the absence or presence of drugs as indicated in FIG. 3. Drugs were added to the wells immediately after seeding from 10-40 mM stock solution in DMSO. BSO was added from a 100 mM aqueous stock solution. Cells were incubated at 37° C. in a 5% CO2 atmosphere and proliferation was monitored in 14 hours by cell counting in a hemacytometer.

L-1210 cells = assay: time course of cell killing alone and with BSO, L-1210; format: cell-based, murine; conditions: L-1210, 2-3 day period; 1 mM BSO
Description: as §1, §2

SIVmac in CEM ×174 cells = assay: SIVmac replication in CEM ×174 cells, reverse transcriptase assay; format: cell-based, SIV; conditions: for effect on SIVmac replication in pre-infected cells: cells pre-infected one day prior to treatment
Description: CEM ×174 cells (3×10^5 /ml) were infected with 3.75 TCID50 /ml (50% tissue culture infectious dosage per ml of cell suspension) stock solution of SIVmac239 or virus isolates from SIVmac239-infected rhesus macaques on day 0. Uniform infection of cells was ensured by the infection of one cell population only per virus preparation. Three days post-infection, the cells were distributed (500 μl/well) into individual wells of a 24-well plate. Fresh medium containing INO2 BA concentrations ranging from 0 to 300 μM and/or BSO concentrations ranging from 0 to 0.25 mM were added to establish final 1-ml reaction volumes, and the cultures were further incubated for 4 days. The wells were then replenished with fresh CEM ×174 cells (3×10^5 /ml), INO2 BA and/or BSO were re-added at the same concentrations as in the original incubates, and incubation was continued for an additional 3 days. This procedure intends to mimic conditions of in vivo chemotherapy. Cell viability and virus titers in the supernatant were determined on day 10 (3 days after the addition of new cells) by the tetrazolium (MTT) method of Hansen et al., J. Immunol. Methods 119:208-210 (1982) and by the SIV p27 and reverse transcriptase (RT) assays described by Chuang et al., FEBS Lett. 326:140-144 (1993), respectively.
To evaluate the activity of SIV reverse transcriptase, 10 μl of infected cell supernatant was added to a reaction mixture containing 50 mM Tris-HCl (pH 8.0), 5 mM MgCl2, 10 mM dithiothreitol, 20 mM KCl, and 1% Triton X-100 in a total volume of 50 μl. Poly(rA):oligo (dT)12-18 was present at 100 μg/ml and 2.4 μM [^3 H]TTP was used. The reaction mixtures were incubated at 37° C. for 1 hr and the TCA-precipitableradioactivity was filtered onto nitrocellulose filters which were then washed, dried and counted.
The effect of INO2 BA on SIVmac replication in CEM ×174 cells that were pre-infected with virus for one day prior to treatment with INO2 BA are shown in FIG. 6. The cell culture and SIV reverse transcription assay were performed as described in Example XIV.

[1] = test system: SIV 23686 (AZT-resistant); assay: AZT-resistant SIV propagation (syncytia formation), SIV 23686; format: cell-based; conditions: for Syncytia: BSO 0
Description: CEM × 174 (3 × 10^5 /ml) were infected with equal doses o
SIVmac239 or virus isolates from SIVmac239infected rhesus macaques (MMU
23686, 22803). Three days postinfection, INO2 BA concentrations
ranging from 0 to 300 μM with or without BSO were added, and incubated
for an additional 3 days. Cell cultures were then examined for syncytia
formation. The number of syncytia in cell cultures was counted in
arbitration fields under 40× magnification and scored as follows: […]

[2] = test system: normal bone marrow progenitor cells; conditions: tumoricidal concentrations; cited from earlier work
[3] = 42 h, read-out: dead cells Day 2

## NC(=O)c1ccc(I)c([N+](=O)[O-])c1 [INO2 BA, 4-iodo-3-nitrobenzamide]
MT-2 cells; Homo sapiens, MT2, concentration decreasing cell viability to 50% of control, 48 h incubation, read-out: I50
  IC50: 70 µM
MT-2 cells; zero viability after 48 hours of incubation
  LD100: 190
AA-2 leukemia cells
  protection against apoptosis-inducing action: did not prevent apoptosis
AA-2 leukemia cells; [3]
  cytotoxicity at 16 µM: 40%
AA-2 leukemia cells; INO2 BA 16 μM
  cell number Day 1: 250000 mL⁻¹
  cell number Day 2: 450000 mL⁻¹
Molt-4 cells
  effect on cell proliferation: no significant effect
L-1210 cells
  effect on cell proliferation: no significant effect
SIVmac in CEM ×174 cells; SIV-infected CEM ×174 cells, FIG. 6
  reverse transcriptase activity: greatly depressed
SIVmac in CEM ×174 cells
  effect on SIVmac replication in pre-infected cells: effective even when incubated with cells that have been infected
[1]; INO2 BA 25 μM
  Syncytia: ++ (10-20)
[1]; INO2 BA 50 μM
  Syncytia: ++ (10-20)
[1]; INO2 BA 100 μM
  Syncytia: ++ (10-20)
[1]; INO2 BA 200 μM
  Syncytia: + (1-9)
[1]; INO2 BA 300 μM
  Syncytia: - (0)
[1]; Simian immunodeficiency virus, 72 h, read-out: INO2 BA concentration abolishing cell fusion (syncytia)
  IC100: > 200 µM
[1]; with 0.01 mM BSO
  inhibitory concentration of INO2 BA (syncytia): 50 µM

## NC(=O)c1cccc(N=O)c1 [NOBA, 3-nitrosobenzamide]
AA-2 leukemia cells
  protection against apoptosis-inducing action: completely protected
AA-2 leukemia cells; [3]
  cytotoxicity at 32 µM: 50%
AA-2 leukemia cells; NOBA 32 μM
  cell number Day 1: 290000 mL⁻¹
  cell number Day 2: 370000 mL⁻¹
Molt-4 cells
  effect on cell proliferation: no significant effect
L-1210 cells
  effect on cell proliferation: no significant effect
SIVmac in CEM ×174 cells
  effect on SIVmac replication in pre-infected cells: requires pre-incubation with cells prior to viral infection
[2]
  effect on normal bone marrow progenitor cells: relatively harmless
